{
  "source": "patent US20250375459A1",
  "about": "“METHODS FOR AMELIORATING COGNITIVE IMPAIRMENT USING BILE ACID DERIVATIVES” (INTERCEPT PHARMACEUTICALS, INC., priority 2022, published 2025)",
  "key": {"[1]": {"conditions": "preclinical data, given early in the disease course; cited from earlier work"}, "C57 Blk/6 mice [2]": {"tested_on": "C57 Blk/6 mice", "assay": "Y-maze testing of spatial memory in aged mice cohort (non-cholestatic cognitive decline)", "assay_type": "in vivo", "from_the_text": "FIG. 1 is an illustration of an aged mice cohort study plan.\nFIG. 2 is a bar graph showing the results of Y-maze testing on aged mice treated with ursodeoxycholic acid (URSO), obeticholic acid (OCA), or control at 11 and 14 months, according to the cohort study plan in FIG. 1.\n(§1) Cognitive impairment is a clinical issue with age-related cognitive decline being a substantial problem in society. C57 Blk/6 mice were aged to 9 months when they started either 6 months of Ursodeoxycholic acid or Obeticholic acid therapy or were left to age naturally to 15 months. Between 9 and 15 months of age mice develop progressive cognitive decline, by 15 months, with a novel arm time of one third indicating complete loss of short-term spatial memory (FIG. 2). Y-maze testing was repeated on the animals in each group at 11 and 14 months (FIG. 2; left bars and right bars respectively). […] The effect was not only behavioral."}, "C57 Blk/6 mice [3]": {"tested_on": "C57 Blk/6 mice", "assay": "Immunofluorescence analysis of neurons and neural progenitors in aged mice", "assay_type": "in vivo", "from_the_text": "FIG. 3 is a bar graph showing immunofluorescence analysis of aged mice treated with obeticholic acid (OCA), ursodeoxycholic acid (URSO), or no supplement (wild type or WT) ad libitum each at 15 months (15 mnth) vs. 9 months (9 mnth), according to the cohort study plan in FIG. 1.\nas §1"}, "[4]": {"conditions": "longer-term experiments, aged mice"}},
  "data": [
    {"smiles": "CC[C@H]1[C@@H](O)[C@@H]2[C@H](CC[C@]3(C)[C@@H]([C@H](C)CCC(=O)O)CC[C@@H]23)[C@@]2(C)CC[C@@H](O)C[C@@H]12", "note": "[OCA, 3α,7α-dihydroxy-6α-ethyl-5β-cholan-24-oic acid]", "values": [
      {"measurement": "cognitive dysfunction in cholestasis (e.g., PBC)", "setting": "[1]", "result": "reverse"},
      {"measurement": "Y-maze spatial memory performance between ages 11 and 14 months", "setting": "C57 Blk/6 mice [2]; aged C57 Blk/6 mice, therapy started at 9 months, Y-maze at 11 and 14 months", "result": "significantly improved"},
      {"measurement": "non-cholestatic (age-related) cognitive decline, loss of short-term spatial memory", "setting": "C57 Blk/6 mice [2]; therapy given between 9 and 15 months of age in the diet", "result": "completely abrogated"},
      {"measurement": "SOX2+ neural progenitor population", "setting": "C57 Blk/6 mice [3]; compared to both aged matched groups, 15 months", "result": "significant increase"},
      {"measurement": "NeuN+ neuron count, neuron loss between 9 and 15 months", "setting": "C57 Blk/6 mice [3]; immunofluorescence, supplement from 9 to 15 months, fed ad lib", "result": "no significant neuron loss"},
      {"measurement": "neuronal precursors", "setting": "C57 Blk/6 mice [3]; [4]", "result": "significant increase"},
      {"measurement": "overall neuronal cell loss", "setting": "C57 Blk/6 mice [3]; [4]", "result": "reversal"},
      {"measurement": "neurogenesis", "setting": "C57 Blk/6 mice [3]; wild-type (WT) mice, FIG. 3", "result": "significantly increases"},
      {"measurement": "neuronal loss", "setting": "C57 Blk/6 mice [3]; wild-type (WT) mice, FIG. 3", "result": "slows"}
    ]}
  ]
}
